In patent publication US10016382B2, “Method for decreasing skeletal muscle damage and/or oxidative stress in mammals” (LONZA INC., priority 2014, dated 2018):
Several values for one entry are separate records, joined by “and”; a condition that tells them apart may be missing. Equal values may be shown once.

Key:
Labrador Retrievers [1] = assay: Heart rate and body temperature recovery following 15 mile run, Example 1; type: in vivo, dog; conditions: Ex.1, 250 mg/d; for Dog body temperature after run / Heartrate after run / Temperature before run / Heartrate before run: mean ± SEM; for Temperature before run / Heartrate before run: before 15 mile run
Excerpt: Each test dog wore an Actical activity monitor from Philips Respironics on a collar for the short higher intensity runs and also wore an Actical activity monitor for the weekly longer endurance runs. The activity data was downloaded into spread sheets along with each dogs identity. Twenty four hours after each long run during the 13 wk running program each of the dogs were scored by kennel staff for soreness or any type of lameness The exercise program was decreased in a tapering program during wk 11 and 12 to allow the dogs to rest for the final long run completed on wk 13. Pre-run serum samples from each test dog was taken 24 hr before the last endurance run. The heart rate and basal body temperature was determined for each test dog prior to the last long endurance run. Each performance dog also wore the Actical activity monitor during the last endurance run. The dogs were put through a 15 mile run that included mud, water, tall grass, and swimming. The dogs were timed when they completed the course. The dogs were encouraged by kennel staff that rode along in a 4 wheel all terrain type vehicle during all of the endurance runs. […] Immediately following the 15 mile endurance run, each dog was placed in a kennel and evaluated for recovery time for body temperature (every 15 minutes for 2 hr) and heart rate (every 2 minutes for 14 minutes). Twenty four hours after test dogs ran the last 15 endurance run, post-run serum samples were taken to evaluate biomarkers for muscle damage and antioxidant status. Each test dog was also scanned with the GE Prodigy DEXA to determine body composition change that occurred during the course of the 13 wk study. The dogs were timed during the last 15 mile run at the end of the study. The body temperature and heart rate for each dog was determined just prior to the long 15 mile run. The heart rate measurements were determined manually and body temperature was determined by using a rectal thermometer. Each staff member was responsible for determining the time required to complete the run for one of the test dogs in each set. Each staff member was also responsible for determining the heart rate and body temperature of their specific assigned dog immediately upon their return after the run. The heart rate was determined every 2 minutes for a fourteen minute period following the last long run and the body temperature was determined every 15 minute for a two hour period after completing the long run. The heart rate and body temperature was determined both before and after to evaluate the fitness and time required after run to reach basal HR and body temperatures.

Labrador Retrievers [2] = assay: Energy expenditure on treadmill (Oxymax open-circuit calorimeter), Example 2 part three; type: in vivo, dog; conditions: for Max energy expenditure / Mean energy expenditure: females
Procedure: Sixteen Labrador Retrievers ranging in age from 1.5 to 3 years were fed low carnitine basal diets with and without added L-carnitine for a 37 week period that included part one and two of the study. Eight (4 male and 4 female) of the test L-carnitine dogs were each fed 3.75 g sugar and 250 mg of L-carnitine, while the other eight dogs (4 male and 4 female) were fed only 4 g of sugar each day for the experimental period. The sixteen test dogs were fed the same diet for parts one, two, and three of the study. During part three of the study, the 16 test dogs were exclusively exercised on the industry sized canine treadmill. Initial Oxymax data was developed for each of the test dogs at various times and speeds in order to determine appropriate speeds on the treadmill required to achieve maximum VO2 concentration. The dogs were run for 15 minutes at 6.5 mph to determine VO2 max. The 16 test dogs were then ran at 50% VO2 max (equivalent to 4 mph) on the treadmill for 30 minutes to determine total energy expenditure (heat production). The system used to acquire information on volume of oxygen consumption and energy expenditure was an Open-Circuit calorimeter, which employed air from the surrounding environment. A mask specially designed for dogs was used to recover the gas sample and ventilate the dog. A small sample was drawn for gas analysis and dried to assure that the readings were made in a sample that was not under the influence of water vapor air exiting the chamber. The O2 and CO2 sensors were connected to software, and instant values of O2 and CO2 were measured. The 16 test dogs (8 L-carnitine dogs, 4 male and 4 female, and 8 control dogs, 4 male and 4 female) were exercised at a warm up speed of 2 mph for 5 minutes prior to running at VO2 max for 15 minutes at 6.5 mph. The next week, the test dogs ran again at a warm up speed of 2 mph for 5 minutes and then at 50% VO2 max for 30 minutes at 4 mph. Energy expenditure was calculated using the formula for dogs (EE (kcal/d)=3.94 VO2+1.11 V CO2) (Weir, […]). The maximum and mean energy expenditure was also calculated. Energy expenditure was reported at Kcal/metabolic body weight (Kg^0.75)/d as normally expressed in the literature for dogs.

[3] = 0 min after 15 mile run, both sexes
[4] = 0 min after 15 mile run, females
[5] = Ex.2 part three, 250 mg/d, 6.5 mph (VO2 max)
[6] = Ex.2 part three, 250 mg/d, 50% VO2 max (4 mph, 30 min)
[7] = combined speeds 4.0 and 6.5 (50% VO2 Max and VO2 Max), diet main effect, both genders
[8] = combined speeds 4.0 and 6.5 (50% VO2 Max and VO2 Max), female dogs
[9] = combined speeds 4.0 and 6.5 (50% VO2 Max and VO2 Max), male dogs
[10] = treadmill speed 4 for 30 min (50% VO2 Max), diet main effect, both genders
[11] = treadmill speed 4 for 30 min (50% VO2 Max), female dogs
[12] = treadmill speed 4 for 30 min (50% VO2 Max), male dogs
[13] = treadmill speed 6.5 for 15 min (VO2 Max), diet main effect, both genders
[14] = treadmill speed 6.5 for 15 min (VO2 Max), female dogs
[15] = treadmill speed 6.5 for 15 min (VO2 Max), male dogs

SMILES: C[N+](C)(C)C[C@H](O)CC(=O)[O-] [L-carnitine]
- Dog body temperature after run (Labrador Retrievers [1]; [3]): 103.7 ± 0.3 n = 19 ° F.
- Heartrate after run (Labrador Retrievers [1]; [3]): 159 and 159 ± 4 n = 16
- Dog body temperature after run (Labrador Retrievers [1]; [4]): 103.6 ± 0.5 n = 9 ° F.
- Heartrate after run (Labrador Retrievers [1]; [4]): 155 ± 5 n = 8
- Dog body temperature after run (Labrador Retrievers [1]; 0 min after 15 mile run, males): 103.8 ± 0.3 n = 10 ° F.
- Heartrate after run (Labrador Retrievers [1]; 0 min after 15 mile run, males): 164 ± 6 n = 11
- Heartrate after run (Labrador Retrievers [1]; 2 min after 15 mile run, both sexes): 146 ± 5 n = 16
- Heartrate after run (Labrador Retrievers [1]; 2 min after 15 mile run, females): 139 ± 6 n = 8
- Heartrate after run (Labrador Retrievers [1]; 2 min after 15 mile run, males): 149 ± 6 n = 11
- Heartrate after run (Labrador Retrievers [1]; 4 min after 15 mile run, both sexes): 131 ± 5 n = 16
- Heartrate after run (Labrador Retrievers [1]; 4 min after 15 mile run, females): 123 ± 6 n = 8
- Heartrate after run (Labrador Retrievers [1]; 4 min after 15 mile run, males): 143 ± 8 n = 11
- Heartrate after run (Labrador Retrievers [1]; 6 min after 15 mile run, both sexes): 123 ± 5 n = 16
- Heartrate after run (Labrador Retrievers [1]; 6 min after 15 mile run, females): 120 ± 6 n = 8
- Heartrate after run (Labrador Retrievers [1]; 6 min after 15 mile run, males): 131 ± 6 n = 11
- Heartrate after run (Labrador Retrievers [1]; 8 min after 15 mile run, both sexes): 114 ± 4 n = 16
- Heartrate after run (Labrador Retrievers [1]; 8 min after 15 mile run, females): 111 ± 6 n = 8
- Heartrate after run (Labrador Retrievers [1]; 8 min after 15 mile run, males): 125 ± 6 n = 11
- Heartrate after run (Labrador Retrievers [1]; 10 min after 15 mile run, both sexes): 113 ± 5 n = 16
- Heartrate after run (Labrador Retrievers [1]; 10 min after 15 mile run, females): 109 ± 5 n = 8
- Heartrate after run (Labrador Retrievers [1]; 10 min after 15 mile run, males): 120 ± 6 n = 11
- Heartrate after run (Labrador Retrievers [1]; 12 min after 15 mile run, both sexes): 107 ± 4 n = 16
- Heartrate after run (Labrador Retrievers [1]; 12 min after 15 mile run, females): 107 ± 7 n = 7
- Heartrate after run (Labrador Retrievers [1]; 12 min after 15 mile run, males): 112 ± 5 n = 11
- Heartrate after run (Labrador Retrievers [1]; 14 min after 15 mile run, both sexes): 101 ± 4 n = 16
- Heartrate after run (Labrador Retrievers [1]; 14 min after 15 mile run, females): 103 ± 7 n = 7
- Heartrate after run (Labrador Retrievers [1]; 14 min after 15 mile run, males): 102 ± 5 n = 10
- Dog body temperature after run (Labrador Retrievers [1]; 15 min after 15 mile run, both sexes): 102.6 ± 0.2 n = 20 ° F.
- Dog body temperature after run (Labrador Retrievers [1]; 15 min after 15 mile run, females): 102.6 ± 0.4 n = 9 ° F.
- Dog body temperature after run (Labrador Retrievers [1]; 15 min after 15 mile run, males): 102.5 ± 0.2 n = 11 ° F.
- Dog body temperature after run (Labrador Retrievers [1]; 30 min after 15 mile run, both sexes): 101.6 ± 0.1 n = 20 ° F.
- Dog body temperature after run (Labrador Retrievers [1]; 30 min after 15 mile run, females): 101.3 ± 0.2 n = 9 ° F.
- Dog body temperature after run (Labrador Retrievers [1]; 30 min after 15 mile run, males): 101.9 ± 0.1 n = 11 ° F.
- Dog body temperature after run (Labrador Retrievers [1]; 45 min after 15 mile run, both sexes): 101.1 ± 0.1 n = 20 ° F.
- Dog body temperature after run (Labrador Retrievers [1]; 45 min after 15 mile run, females): 101 ± 0.2 n = 9 ° F.
- Dog body temperature after run (Labrador Retrievers [1]; 45 min after 15 mile run, males): 101.1 ± 0.1 n = 11 ° F.
- Dog body temperature after run (Labrador Retrievers [1]; 60 min after 15 mile run, both sexes): 100.9 ± 0.2 n = 20 ° F.
- Dog body temperature after run (Labrador Retrievers [1]; 60 min after 15 mile run, females): 100.8 ± 0.3 n = 9 ° F.
- Dog body temperature after run (Labrador Retrievers [1]; 60 min after 15 mile run, males): 101 ± 0.2 n = 11 ° F.
- Dog body temperature after run (Labrador Retrievers [1]; 75 min after 15 mile run, both sexes): 100.7 ± 0.2 n = 19 ° F.
- Dog body temperature after run (Labrador Retrievers [1]; 75 min after 15 mile run, females): 100.7 ± 0.3 n = 8 ° F.
- Dog body temperature after run (Labrador Retrievers [1]; 75 min after 15 mile run, males): 100.7 ± 0.2 n = 11 ° F.
- Dog body temperature after run (Labrador Retrievers [1]; 90 min after 15 mile run, both sexes): 100.7 ± 0.2 n = 20 ° F.
- Dog body temperature after run (Labrador Retrievers [1]; 90 min after 15 mile run, females): 100.6 ± 0.3 n = 9 ° F.
- Dog body temperature after run (Labrador Retrievers [1]; 90 min after 15 mile run, males): 100.8 ± 0.2 n = 11 ° F.
- Dog body temperature after run (Labrador Retrievers [1]; 105 min after 15 mile run, both sexes): 100.4 ± 0.2 n = 19 ° F.
- Dog body temperature after run (Labrador Retrievers [1]; 105 min after 15 mile run, females): 100.2 ± 0.4 n = 8 ° F.
- Dog body temperature after run (Labrador Retrievers [1]; 105 min after 15 mile run, males): 100.5 ± 0.2 n = 11 ° F.
- Dog body temperature after run (Labrador Retrievers [1]; 120 min after 15 mile run, both sexes): 100.7 ± 0.2 n = 14 ° F.
- Dog body temperature after run (Labrador Retrievers [1]; 120 min after 15 mile run, females): 100.7 ± 0.4 n = 4 ° F.
- Dog body temperature after run (Labrador Retrievers [1]; 120 min after 15 mile run, males): 100.8 ± 0.2 n = 10 ° F.
- Time to get heart rate back to basal levels (Labrador Retrievers [1]; after 15 mile run, both treatments required this time): approximately 14 minutes
- Temperature before run (Labrador Retrievers [1]; both sexes): 101.3 ± 0.2 n = 20 ° F.
- Heartrate before run (Labrador Retrievers [1]; females): 89 ± 3 n = 9
- Temperature before run (Labrador Retrievers [1]; females): 101.0 ± 0.1 n = 9 ° F.
- Heartrate before run (Labrador Retrievers [1]; males): 89 ± 3 n = 11
- Temperature before run (Labrador Retrievers [1]; males): 101.7 ± 0.4 n = 11 ° F.
- Heart rate and body temperature recovery vs control (Labrador Retrievers [1]; following the final long run): not different
- Time back to pre-run core temperature (Labrador Retrievers [1]; males, following 15 mile run, both groups): 30 to 45 min
- Additional heat expenditure vs non-L-carnitine diet (Labrador Retrievers [2]; Ex.2 part three, 250 mg/d, female running at 50% of VO2 Max): 122 kcal/kg BW^0.75/d
- Max energy expenditure (Labrador Retrievers [2]; [5]): 961 kcal/kgBW^0.75/d
- Mean energy expenditure (Labrador Retrievers [2]; [5]): 815 kcal/kgBW^0.75/d
- Max energy expenditure (Labrador Retrievers [2]; [6]): 794 kcal/kg^0.75/d
- Mean energy expenditure (Labrador Retrievers [2]; [6]): 598 kcal/kg^0.75/d
- Max and mean energy expenditure vs low carnitine dogs (Labrador Retrievers [2]; Ex.2 part three, 250 mg/d, males, Tables 35 and 36): not significantly different
- Quantity of low Carnitine basal food saved (Labrador Retrievers [2]; Ex.2 part three, 250 mg/d, working female running at 50% VO2 Max (4 mph) for one hour): 15.18 g
- Max EE (Labrador Retrievers [2]; [7]): 793 Kcal/Kg^0.75/d
- Mean EE (Labrador Retrievers [2]; [7]): 675 Kcal/Kg^0.75/d
- Max EE (Labrador Retrievers [2]; [8]): 838 Kcal/Kg^0.75/d
- Mean EE (Labrador Retrievers [2]; [8]): 679 Kcal/Kg^0.75/d
- Max EE (Labrador Retrievers [2]; [9]): 748 Kcal/Kg^0.75/d
- Mean EE (Labrador Retrievers [2]; [9]): 671 Kcal/Kg^0.75/d
- Max EE (Labrador Retrievers [2]; [10]): 716 Kcal/Kg^0.75/d
- Mean EE (Labrador Retrievers [2]; [10]): 576 Kcal/Kg^0.75/d
- Max EE (Labrador Retrievers [2]; [11]): 794 a Kcal/Kg^0.75/d
- Mean EE (Labrador Retrievers [2]; [11]): 598 a Kcal/Kg^0.75/d
- Max EE (Labrador Retrievers [2]; [12]): 637 ab Kcal/Kg^0.75/d
- Mean EE (Labrador Retrievers [2]; [12]): 554 ab Kcal/Kg^0.75/d
- Max EE (Labrador Retrievers [2]; [13]): 909 Kcal/Kg^0.75/d
- Mean EE (Labrador Retrievers [2]; [13]): 801 Kcal/Kg^0.75/d
- Max EE (Labrador Retrievers [2]; [14]): 961 Kcal/Kg^0.75/d
- Mean EE (Labrador Retrievers [2]; [14]): 815 Kcal/Kg^0.75/d
- Max EE (Labrador Retrievers [2]; [15]): 858 Kcal/Kg^0.75/d
- Mean EE (Labrador Retrievers [2]; [15]): 788 Kcal/Kg^0.75/d
